As usually defined, the IC50 is the midpoint of a concentration-inhibition curve. Broadly, the Vd is a proportionality between amount in the body and measured concentration, not a real space. Read a high Vd as wide distribution into tissue. In general, half-life refers to the time needed for the level to fall by half in the phase considered. A higher half-life goes with slow decline. A word on the Tmax: it is the time from dosing to the highest level.

Molecules are shown by their SMILES.

Data set [1] can be described thus: Displacement of [3H]Gabapentin from alpha2delta calcium channel in pig brain tissue homogenates after 45 mins by scintillation counting. In kind it is tissue-based, Sus scrofa. For orientation: Loss of bound radioactivity is the signal in a displacement assay; it reports binding, not function.
Data set [2] in a line: Volume of distribution in iv dosed rat. Particulars: in vivo. In kind it is ADME, organism-based.
Data set [3] can be described thus: Half life in iv dosed rat. In kind it is ADME, organism-based. Particulars: in vivo.
In the next data set the test system is Rattus norvegicus. The data set is described as follows: Unbound clearance in iv dosed rat. The format is ADME, organism-based. Particulars: in vivo.
Data set [4] in a line: Tmax in iv dosed rat. In kind it is ADME, organism-based. Particulars: in vivo.

Turning to `O=C(O)CNCCSc1ccc(Cl)cc1`, in data set [1], the IC50 was determined as 195 nM. With `O=C(O)CNCCOc1ccc(Cl)cc1`, the IC50 in data set [1] is 6590 nM. Still for that read-out and setting: then `O=C(O)CNCCSc1ccc(F)cc1`, with 2500 nM; and `O=C(O)CNCCSc1ccc(Br)cc1`, with 59 nM; and `O=C(O)CNCCSc1ccccc1`, with 5400 nM. Compound `O=C(O)CNCCSc1ccc2ccccc2c1` registered a Vd in data set [2] of 0.6 L/kg. Besides, the IC50 in data set [1] turned out to be 22 nM. The compound further showed a half-life in data set [3] of 66 min. This compound registered a CL free in the data set with Rattus norvegicus of 23 mL/min/kg. For the same compound, the Tmax in data set [4] stood at 15 min. On to `O=C(O)CNCCSc1cccc(Br)c1`, for which the IC50 in data set [1] was 428 nM.

As to `O=C(O)CNCCSc1ccc2ccncc2c1`, the IC50 in data set [1] is 83 nM.

`N#Cc1ccc(SCCNCC(=O)O)cc1`: the IC50 in data set [1] stood at 680 nM. Still for that read-out and setting: the figure for `NCc1ccc(SCCNCC(=O)O)cc1` is 900 nM; for `C[C@@H](CNCC(=O)O)Oc1ccc(Br)cc1` it is 441 nM. Consider `C[C@H](CNCC(=O)O)Oc1ccc(Br)cc1`, for which the IC50 in data set [1] came to 6670 nM.

Consider `CC(CNCC(=O)O)Oc1ccc(Cl)cc1` (racemic), for which the IC50 in data set [1] is 523 nM. Take `CCC(CNCC(=O)O)Oc1ccc(Br)cc1` (racemic): in data set [1], the IC50 is 214 nM. The same measure, in the same setting: the figure for `CCC(CNCC(=O)O)Oc1cccc(Cl)c1` (racemic) is 40 nM.

The values above are taken from ChEMBL document CHEMBL1777680, “Part 1: N-alkylated glycines as potent α2δ ligands” (Bioorg Med Chem Lett, 2011).
